Entries after “also recorded” stand apart in the source; their conditions may differ.
What was measured:
C57BL/6J female mice [1] = test: Survival following acetaminophen (Tylenol) overdose; format: in vivo, mouse; settings: 5 mg/kg bid from 48 hours prior to acetaminophen, 9 doses, cohort of 12;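 further: control animals received vehicle only, given on a once or twice daily schedule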
C57BL/6J mice = test: Liver regeneration after partial hepatectomy, C57BL/6J mice; format: in vivo, mouse
C57BL/6J female mice [2] = test: Survival after whole body irradiation; format: in vivo, mouse; settings: for Number of mice surviving: cohort of 3
[3] = tested on: bone marrow SKL cells and stromal cells; test: Gene expression in bone marrow SKL and CD45(-) stromal cells of treated mice; format: in vivo, mouse
Procedure: 2 hours following the last dose bone marrow is harvested and sorted into SKL marked cells that are hematopoietic stem cell enriched and into CD45 (−) cells that are bone marrow stroma cells. RNA was extracted and gene expression determined relative to levels in mice injected with vehicle control.

FVB mice = test: Toxicity study in FVB mice, daily weights; format: in vivo, mouse; settings: 5 mg/kg IP twice daily for 21 days, N=6
A549 cells = test: PGE2 levels in medium of IL1-beta stimulated A549 cells; format: cell-based; settings: IL1-beta 23 hours, compound added for the last 5 hours
[4] = tested on: mice irradiated with 11Gy; test: Survival of mice following bone marrow transplant (Example 11); format: in vivo, mouse
Description: A matched control cohort received injections with vehicle only. On day one mice received an infusion of donor marrow at doses of 100,000 cells; 200,000 cells; or 500,000 cells. […] Among mice receiving 200,000 donor cells, all control mice were dead by day 12.

With `CCCC[S+]([O-])c1sc2nc(-c3cccs3)cc(-c3ccccc3)c2c1N` (stereo not shown) [SW033291, 2-(butylsulfinyl)-4-phenyl-6-(thiophen-2-yl)thieno[2,3-b]pyridin-3-amine] the “Number of mice surviving” value (C57BL/6J female mice [1]; 64 hrs) was 10, the “Number of mice surviving” value (C57BL/6J female mice [1]; 72 hrs) was 10 and the “Number of mice surviving” value (C57BL/6J female mice [1]; 88 hr) was 10. The “Number of mice surviving” value (C57BL/6J female mice [1]; 96 hr) was 10, the “Number of mice surviving” value (C57BL/6J female mice [1]; 112 hr) was 10 and the “Number of mice surviving” value (C57BL/6J female mice [1]; 120 hr) was 10. For the same compound, the “mitosis per high powered field in liver” value (C57BL/6J mice; 5 mg/kg IP daily, post-operative days 3 and 4) was “significantly increased hepatic mitosis; also recorded: significantly increased numbers of mitotic liver cells”, the “serum ALT levels” value (C57BL/6J mice; one mouse each, 5 mg/kg IP bid, post-operative days 1-7) was “lower” and the “Number of mice surviving” value (C57BL/6J female mice [2]; 7 Gy, 5 mg/kg IP daily for 7 doses, Day 5) was 3. For the same compound, the “Number of mice surviving” value (C57BL/6J female mice [2]; 7 Gy, 5 mg/kg IP daily for 7 doses, Day 6) was 3, the “Number of mice surviving” value (C57BL/6J female mice [2]; 7 Gy, 5 mg/kg IP daily for 7 doses, Day 7) was 3 and the “Number of mice surviving” value (C57BL/6J female mice [2]; 7 Gy, 5 mg/kg IP daily for 7 doses, Day 8) was 3. The “Number of mice surviving” value (C57BL/6J female mice [2]; 7 Gy, 5 mg/kg IP daily for 7 doses, Day 9) was 3, the “Number of mice surviving” value (C57BL/6J female mice [2]; 7 Gy, 5 mg/kg IP daily for 7 doses, Day 10) was 3 and the “Number of mice surviving” value (C57BL/6J female mice [2]; 7 Gy, 5 mg/kg IP daily for 7 doses, Day 11) was 3. For the same compound, the “Number of mice surviving” value (C57BL/6J female mice [2]; 7 Gy, 5 mg/kg IP daily for 7 doses, Day 12) was 3, the “Number of mice surviving” value (C57BL/6J female mice [2]; 7 Gy, 5 mg/kg IP daily for 7 doses, Day 13) was 3 and the “Number of mice surviving” value (C57BL/6J female mice [2]; 7 Gy, 5 mg/kg IP daily for 7 doses, Day 14) was 3. The “Number of mice surviving” value (C57BL/6J female mice [2]; 7 Gy, 5 mg/kg IP daily for 7 doses, Day 15) was 3, the Appearance of mice (C57BL/6J female mice [2]; 7 Gy, Day 25, printed 'Looks Healthy' over two lines) was “Healthy” and the “Number of mice surviving” value (C57BL/6J female mice [2]; 9 Gy, 5 mg/kg IP daily for 7 doses, Day 5) was 3. The “Number of mice surviving” value (C57BL/6J female mice [2]; 9 Gy, 5 mg/kg IP daily for 7 doses, Day 6) was 3, the “Number of mice surviving” value (C57BL/6J female mice [2]; 9 Gy, 5 mg/kg IP daily for 7 doses, Day 7) was 3 and the “Number of mice surviving” value (C57BL/6J female mice [2]; 9 Gy, 5 mg/kg IP daily for 7 doses, Day 8) was 3. For the same compound, the “Number of mice surviving” value (C57BL/6J female mice [2]; 9 Gy, 5 mg/kg IP daily for 7 doses, Day 9) was 3, the “Number of mice surviving” value (C57BL/6J female mice [2]; 9 Gy, 5 mg/kg IP daily for 7 doses, Day 10) was 3 and the “Number of mice surviving” value (C57BL/6J female mice [2]; 9 Gy, 5 mg/kg IP daily for 7 doses, Day 11) was 3. For the same compound, the “Number of mice surviving” value (C57BL/6J female mice [2]; 9 Gy, 5 mg/kg IP daily for 7 doses, Day 12) was 2, the “Number of mice surviving” value (C57BL/6J female mice [2]; 9 Gy, 5 mg/kg IP daily for 7 doses, Day 13) was 2 and the “Number of mice surviving” value (C57BL/6J female mice [2]; 9 Gy, 5 mg/kg IP daily for 7 doses, Day 14) was 1. The “Number of mice surviving” value (C57BL/6J female mice [2]; 9 Gy, 5 mg/kg IP daily for 7 doses, Day 15) was 0, the “longer survival than vehicle control” value (C57BL/6J female mice [2]; 11Gy, 5 mg/kg IP daily for 7 doses) was 48 h and the “Number of mice surviving” value (C57BL/6J female mice [2]; 11 Gy, 5 mg/kg IP daily for 7 doses (Table 6), Day 5) was 3. The “Number of mice surviving” value (C57BL/6J female mice [2]; 11 Gy, 5 mg/kg IP daily for 7 doses (Table 6), Day 6) was 3, the “Number of mice surviving” value (C57BL/6J female mice [2]; 11 Gy, 5 mg/kg IP daily for 7 doses (Table 6), Day 7) was 3 and the “Number of mice surviving” value (C57BL/6J female mice [2]; 11 Gy, 5 mg/kg IP daily for 7 doses (Table 6), Day 8) was 3. The “Number of mice surviving” value (C57BL/6J female mice [2]; 11 Gy, 5 mg/kg IP daily for 7 doses (Table 6), Day 9) was 2, the “Number of mice surviving” value (C57BL/6J female mice [2]; 11 Gy, 5 mg/kg IP daily for 7 doses (Table 6), Day 10) was 0 and the “Number of mice surviving” value (C57BL/6J female mice [2]; 11 Gy, 1 dose/daily for 7 days (Table 7), Day 5) was 3. The “Number of mice surviving” value (C57BL/6J female mice [2]; 11 Gy, 1 dose/daily for 7 days (Table 7), Day 6) was 3, the “Number of mice surviving” value (C57BL/6J female mice [2]; 11 Gy, 1 dose/daily for 7 days (Table 7), Day 7) was 3 and the “Number of mice surviving” value (C57BL/6J female mice [2]; 11 Gy, 1 dose/daily for 7 days (Table 7), Day 8) was 2. The “Number of mice surviving” value (C57BL/6J female mice [2]; 11 Gy, 1 dose/daily for 7 days (Table 7), Day 9) was 1, the “Number of mice surviving” value (C57BL/6J female mice [2]; 11 Gy, 1 dose/daily for 7 days (Table 7), Day 10) was 0 and the “Number of mice surviving” value (C57BL/6J female mice [2]; 11 Gy, 1 dose/daily, continuous every day, Day 5) was 3. For the same compound, the “Number of mice surviving” value (C57BL/6J female mice [2]; 11 Gy, 1 dose/daily, continuous every day, Day 6) was 3, the “Number of mice surviving” value (C57BL/6J female mice [2]; 11 Gy, 1 dose/daily, continuous every day, Day 7) was 3 and the “Number of mice surviving” value (C57BL/6J female mice [2]; 11 Gy, 1 dose/daily, continuous every day, Day 8) was 3. The “Number of mice surviving” value (C57BL/6J female mice [2]; 11 Gy, 1 dose/daily, continuous every day, Day 9) was 2, the “Number of mice surviving” value (C57BL/6J female mice [2]; 11 Gy, 1 dose/daily, continuous every day, Day 10) was 0 and the “Number of mice surviving” value (C57BL/6J female mice [2]; 11 Gy, 7 days, 2 dose daily, Day 5) was 3. For the same compound, the “Number of mice surviving” value (C57BL/6J female mice [2]; 11 Gy, 7 days, 2 dose daily, Day 6) was 3, the “Number of mice surviving” value (C57BL/6J female mice [2]; 11 Gy, 7 days, 2 dose daily, Day 7) was 3 and the “Number of mice surviving” value (C57BL/6J female mice [2]; 11 Gy, 7 days, 2 dose daily, Day 8) was 3. For the same compound, the “Number of mice surviving” value (C57BL/6J female mice [2]; 11 Gy, 7 days, 2 dose daily, Day 9) was 2, the “Number of mice surviving” value (C57BL/6J female mice [2]; 11 Gy, 7 days, 2 dose daily, Day 10) was 0 and the “longer survival than vehicle control, on average” value (C57BL/6J female mice [2]; 11Gy, any of three 5 mg/kg dosing schedules) was 1 to 2 days. The “induction of CXCL12” value [3] was “greater than 4 fold”, the “induction of SCF” value [3] was “greater than 4 fold” and the mouse weight gain (FVB mice) was “no evidence for SW033291 reducing mouse weight”. For the same compound, the “15-PGDH activity in cells as reflected in PGE2 levels in medium” value (A549 cells) was “clear inhibition of 15-PGDH activity in the cells”, the median survival ([4]; 100,000 donor cells, 5 mg/kg twice daily) was “approximate doubling of median survival” and the survival ([4]; 200,000 donor cells, 30 days of observation) was “survived at 30 days of observation”. For the same compound, the survival ([4]; 500,000 donor cells, day 30) was “all survived”.

From US9789116B2, “Compositions and methods of modulating short-chain dehydrogenase activity” (CASE WESTERN RESERVE UNIVERSITY, priority 2013, dated 2017)
